Measurements from the supplement of paper PMC11061612.

Columns and labels:
Carboplatin = compound: C1CC(C1)(C(=O)[O-])C(=O)[O-].N.N.[Pt+2] [Carboplatin]; details: max 10 µM
Method in brief: (§1)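 In 1536-well plates, cancer cell lines in 7.5 μl DMEM/F12 or RPMI with 10% FBS spent 24 hours at 37°C and 5% CO2 and were then dosed for 72 hours with final DMSO typically 0.2%. Viability was read by CellTiter-Glo 2.0 luminescence and scaled between blank-well and DMSO-well means. The single-agent IC50 was fitted from dose responses using a logistic curve in a non-linear mixed effects model, and that logistic curve had two parameters.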

AZD5363 = compound: C1CN(CCC1(C(=O)N[C@@H](CCO)C2=CC=C(C=C2)Cl)N)C3=NC=NC4=C3C=CN4 [AZD5363]; details: max 10 µM
Method in brief: as §1

AZD1775 = compound: C=CCn1c(=O)c2cnc(Nc3ccc(N4CCN(C)CC4)cc3)nc2n1-c1cccc(C(C)(C)O)n1 [AZD1775]; details: max 3 µM
Method in brief: as §1

Trametinib = compound: CC(=O)Nc1cccc(-n2c(=O)n(C3CC3)c(=O)c3c(Nc4ccc(I)cc4F)n(C)c(=O)c(C)c32)c1 [Trametinib]; details: max 1 µM
Method in brief: as §1

Paclitaxel = compound: CC(=O)O[C@H]1C(=O)[C@@]2(C)[C@H]([C@H](OC(=O)c3ccccc3)[C@]3(O)C[C@H](OC(=O)[C@H](O)[C@@H](NC(=O)c4ccccc4)c4ccccc4)C(C)=C1C3(C)C)[C@]1(OC(C)=O)CO[C@@H]1C[C@@H]2O [Paclitaxel]; details: max 3 µM
Method in brief: as §1

Palbociclib = compound: CC(=O)c1c(C)c2cnc(Nc3ccc(N4CCNCC4)cn3)nc2n(C2CCCC2)c1=O [Palbociclib]; details: max 10 µM
Method in brief: as §1

AZD1390 = compound: CC(C)n1c(=O)n(C)c2cnc3cc(F)c(-c4ccc(OCCCN5CCCCC5)nc4)cc3c21 [AZD1390]; details: max 0.3 µM
Method in brief: as §1

Venetoclax = compound: CC1(C)CCC(CN2CCN(c3ccc(C(=O)NS(=O)(=O)c4ccc(NCC5CCOCC5)c([N+](=O)[O-])c4)c(Oc4cnc5[nH]ccc5c4)c3)CC2)=C(c2ccc(Cl)cc2)C1 [Venetoclax]; details: max 1 µM
Method in brief: as §1

Dasatinib = compound: CC1=C(C(=CC=C1)Cl)NC(=O)C2=CN=C(S2)NC3=CC(=NC(=N3)C)N4CCN(CC4)CCO [Dasatinib]; details: max 2 µM
Method in brief: as §1

SG3199 = compound: CC1=CN2[C@@H](C1)C=NC3=CC(=C(C=C3C2=O)OC)OCCCCCOC4=C(C=C5C(=C4)N=C[C@@H]6CC(=CN6C5=O)C)OC [SG3199]; details: max 0.001 µM
Method in brief: as §1

AZD2811 = compound: CCN(CCO)CCCOc1ccc2c(Nc3cc(CC(=O)Nc4cccc(F)c4)[nH]n3)ncnc2c1 [AZD2811]; details: max 1 µM
Method in brief: as §1

SN-38 = compound: CCc1c2c(nc3ccc(O)cc13)-c1cc3c(c(=O)n1C2)COC(=O)[C@]3(O)CC [SN-38]; details: max 0.3 µM
Method in brief: as §1

AZD0156 = compound: CN(C)CCCOc1ccc(-c2ccc3ncc4c(c3c2)n(C2CCOCC2)c(=O)n4C)cn1 [AZD0156]; details: max 3 µM
Method in brief: as §1

AZD4320 = compound: CN(CC[C@H](CSC1=CC=CC=C1)NC2=C(C=C(C=C2)S(=O)(=O)NC(=O)C3=CC=C(C=C3)N4CCC(CC4)[C@H](C5=CC=CC=C5C6=CC=C(C=C6)Cl)O)S(=O)(=O)C(F)(F)F)CCO [AZD4320]; details: max 1 µM
Method in brief: as §1

Alisertib = compound: COc1cc(Nc2ncc3c(n2)-c2ccc(Cl)cc2C(c2c(F)cccc2OC)=NC3)ccc1C(=O)O [Alisertib]; details: max 10 µM
Method in brief: as §1

Etoposide = compound: COc1cc([C@@H]2c3cc4c(cc3[C@@H](O[C@@H]3O[C@@H]5CO[C@@H](C)O[C@H]5[C@H](O)[C@H]3O)[C@H]3COC(=O)[C@H]23)OCO4)cc(OC)c1O [Etoposide]; details: max 10 µM
Method in brief: as §1

Gefitinib = compound: COc1cc2ncnc(Nc3ccc(F)c(Cl)c3)c2cc1OCCCN1CCOCC1 [Gefitinib]; details: max 10 µM
Method in brief: as §1

Prexasertib = compound: COc1cccc(OCCCN)c1-c1cc(Nc2cnc(C#N)cn2)n[nH]1 [Prexasertib]; details: max 1 µM
Method in brief: as §1

Doxorubicin = compound: COc1cccc2c1C(=O)c1c(O)c3c(c(O)c1C2=O)C[C@@](O)(C(=O)CO)C[C@@H]3O[C@H]1C[C@H](N)[C@H](O)[C@H](C)O1 [Doxorubicin]; details: max 1 µM
Method in brief: as §1

AZD5153 = compound: COc1nnc2ccc(N3CCC(c4ccc(OCCN5CCN(C)C(=O)[C@H]5C)cc4)CC3)nn12 [AZD5153]; details: max 1 µM
Method in brief: as §1

Lapatinib = compound: CS(=O)(=O)CCNCc1ccc(-c2ccc3ncnc(Nc4ccc(OCc5cccc(F)c5)c(Cl)c4)c3c2)o1 [Lapatinib]; details: max 10 µM
Method in brief: as §1

AZD8186 = compound: C[C@@H](Nc1cc(F)cc(F)c1)c1cc(C(=O)N(C)C)cc2c(=O)cc(N3CCOCC3)oc12 [AZD8186]; details: max 10 µM
Method in brief: as §1

Crizotinib = compound: C[C@@H](Oc1cc(-c2cnn(C3CCNCC3)c2)cnc1N)c1c(Cl)ccc(F)c1Cl [Crizotinib]; details: max 10 µM
Method in brief: as §1

Savolitinib = compound: C[C@@H](c1ccc2nccn2c1)n1nnc2ncc(-c3cnn(C)c3)nc21 [Savolitinib]; details: max 1 µM
Method in brief: as §1

AZD6738 = compound: C[C@@H]1COCCN1C2=NC(=NC(=C2)C3(CC3)[S@](=N)(=O)C)C4=C5C=CNC5=NC=C4 [AZD6738]; details: max 10 µM
Method in brief: as §1

AZD5991 = compound: Cc1c2c(nn1C)CSCc1cc(n(C)n1)CSc1cc(c3ccccc3c1)OCCCc1c(C(=O)O)n(C)c3c-2c(Cl)ccc13 [AZD5991]; details: max 1 µM
Method in brief: as §1

AZD7648 = compound: Cc1cc2ncnn2cc1Nc1ncc2c(n1)n(C1CCOCC1)c(=O)n2C [AZD7648]; details: max 10 µM
Method in brief: as §1

Taselisib = compound: Cc1nc(-c2cn3c(n2)-c2ccc(-c4cnn(C(C)(C)C(N)=O)c4)cc2OCC3)n(C(C)C)n1 [Taselisib]; details: max 10 µM
Method in brief: as §1

Selumetinib = compound: Cn1cnc2c(F)c(Nc3ccc(Br)cc3Cl)c(C(=O)NOCCO)cc21 [Selumetinib]; details: max 10 µM
Method in brief: as §1

SRA737 = compound: N#Cc1cnc(Nc2cc(NC[C@H]3CNCCO3)c(C(F)(F)F)cn2)cn1 [SRA737]; details: max 10 µM
Method in brief: as §1

MK-2206 = compound: NC1(c2ccc(-c3nc4ccn5c(=O)[nH]nc5c4cc3-c3ccccc3)cc2)CCC1 [MK-2206]; details: max 10 µM
Method in brief: as §1

Gemcitabine = compound: Nc1ccn([C@@H]2O[C@H](CO)[C@@H](O)C2(F)F)c(=O)n1 [Gemcitabine]; details: max 0.3 µM
Method in brief: as §1

[1] = compound: O=C(Nc1ccc2[nH]nc(-c3ccncc3)c2c1)[C@@H]1CCN(CC(=O)N2CCN(c3ccc(-c4ncccn4)cc3)CC2)C1; details: max 5 µM
Method in brief: as §1

Olaparib = compound: O=C(c1cc(Cc2n[nH]c(=O)c3ccccc23)ccc1F)N1CCN(C(=O)C2CC2)CC1 [Olaparib]; details: max 10 µM
Method in brief: as §1

5-Fluorouracil = compound: O=c1[nH]cc(F)c(=O)[nH]1 [5-Fluorouracil]; details: max 20 µM
Method in brief: as §1

| Cell Line | IC50, cell viability 72 h (Carboplatin) | IC50, cell viability 72 h (AZD5363) | IC50, cell viability 72 h (AZD1775) | IC50, cell viability 72 h (Trametinib) | IC50, cell viability 72 h (Paclitaxel) | IC50, cell viability 72 h (Palbociclib) | IC50, cell viability 72 h (AZD1390) | IC50, cell viability 72 h (Venetoclax) | IC50, cell viability 72 h (Dasatinib) | IC50, cell viability 72 h (SG3199) | IC50, cell viability 72 h (AZD2811) | IC50, cell viability 72 h (SN-38) | IC50, cell viability 72 h (AZD0156) | IC50, cell viability 72 h (AZD4320) | IC50, cell viability 72 h (Alisertib) | IC50, cell viability 72 h (Etoposide) | IC50, cell viability 72 h (Gefitinib) | IC50, cell viability 72 h (Prexasertib) | IC50, cell viability 72 h (Doxorubicin) | IC50, cell viability 72 h (AZD5153) | IC50, cell viability 72 h (Lapatinib) | IC50, cell viability 72 h (AZD8186) | IC50, cell viability 72 h (Crizotinib) | IC50, cell viability 72 h (Savolitinib) | IC50, cell viability 72 h (AZD6738) | IC50, cell viability 72 h (AZD5991) | IC50, cell viability 72 h (AZD7648) | IC50, cell viability 72 h (Taselisib) | IC50, cell viability 72 h (Selumetinib) | IC50, cell viability 72 h (SRA737) | IC50, cell viability 72 h (MK-2206) | IC50, cell viability 72 h (Gemcitabine) | IC50, cell viability 72 h [1] | IC50, cell viability 72 h (Olaparib) | IC50, cell viability 72 h (5-Fluorouracil) |
| --- | --- | --- | --- | --- | --- | --- | --- | --- | --- | --- | --- | --- | --- | --- | --- | --- | --- | --- | --- | --- | --- | --- | --- | --- | --- | --- | --- | --- | --- | --- | --- | --- | --- | --- | --- |
| L-1236 (Hodgkin's Lymphoma) | > 10000 nM | 2810 nM | 85.4 nM | > 1000 nM | 36.2 nM | 6340 nM | > 300 nM | 861 nM | > 2000 nM | > 1 nM | > 1000 nM | 62.4 nM | > 3000 nM | 89.5 nM | > 10000 nM | 3350 nM | > 10000 nM | 32.7 nM | > 1000 nM | 13.2 nM | > 10000 nM | 2080 nM | 1940 nM | > 1000 nM | 3960 nM | > 1000 nM | > 10000 nM | 9380 nM | > 10000 nM | 969 nM | 8400 nM | 17.7 nM | > 5000 nM | > 10000 nM | > 20000 nM |
| NB12 (Neuroblastoma) | > 10000 nM | > 10000 nM | 731 nM | > 1000 nM | 15 nM | > 10000 nM | > 300 nM | 333 nM | > 2000 nM |  | 342 nM | 6.61 nM | > 3000 nM | 31.1 nM |  | > 10000 nM | > 10000 nM |  |  | 217 nM | > 10000 nM | > 10000 nM | 9850 nM | > 1000 nM | > 10000 nM | > 1000 nM | > 10000 nM | 968 nM | > 10000 nM | > 10000 nM | 7040 nM | 57.4 nM | > 5000 nM | > 10000 nM | > 20000 nM |
| PC-3_[JPC-3] (Lung Adenocarcinoma) | > 10000 nM | > 10000 nM | > 3000 nM | > 1000 nM | 416 nM | > 10000 nM | > 300 nM | > 1000 nM | 853 nM | > 1 nM | > 1000 nM | 35.9 nM | > 3000 nM | > 1000 nM | > 10000 nM | > 10000 nM |  | > 1000 nM | > 1000 nM | > 1000 nM | 5120 nM | > 10000 nM | > 10000 nM | > 1000 nM | > 10000 nM | > 1000 nM | > 10000 nM | > 10000 nM | > 10000 nM | > 10000 nM | > 10000 nM | 230 nM | > 5000 nM | > 10000 nM | > 20000 nM |
| SK-MEL-2 (Melanoma) | > 10000 nM | > 10000 nM | > 3000 nM | 32.4 nM | 402 nM | > 10000 nM | > 300 nM | > 1000 nM | > 2000 nM |  | > 1000 nM | > 300 nM | > 3000 nM | > 1000 nM |  | > 10000 nM | > 10000 nM |  |  | 345 nM | > 10000 nM | > 10000 nM | > 10000 nM | > 1000 nM | > 10000 nM | 343 nM | > 10000 nM | > 10000 nM | 3990 nM | > 10000 nM | > 10000 nM | > 300 nM | 716 nM | > 10000 nM | > 20000 nM |
